{"source": "patent US10077268B2", "about": "“FXR agonists and methods for making and using” (Salk Institute for Biological Studies, priority 2014, dated 2018)", "key": {"[1]": {"test_system": "FXR target gene expression", "assay": "FXR target gene expression (qPCR) after acute PO or IP treatment", "type": "in vivo, C57BL/6J mice", "settings": "for FXR target genes (IBABP, OSTα, FGF15) in liver or kidney / FXR target genes (IBABP, OSTα, FGF15) in the intestine: PO", "protocol": "FIGS. 1A-1C are a comparative expression chart and two bar charts, respectively, illustrating increased levels of FXR target gene expression in the intestine relative to expression in the liver and kidney. 8 week-old C57BL/6J mice were treated with vehicle or fexaramine (100 mg/kg) via oral (PO) or intraperitoneal (IP) injection for three days (FIGS. 1A-1B) or five days (FIG. 1C).\nFXR target gene expression was analyzed by qPCR. Gene expression was normalized against a vehicle-treated group.\nFIG. 1F is a bar chart illustrating that orally delivered fexaramine is intestinally-restricted. Mice received vehicle or Fexaramine (100 mg/kg) via per os (PO) or intraperitoneal (IP) injection for 5 days. Expression of the FXR target gene SHP after PO or IP injection in selected tissues is shown.\n(§1) Upon exploration of the in vivo effects of fexaramine (Fex) administration, it was discovered that due to ineffectual absorption, oral (PO) and intraperitoneal (IP) drug delivery produced very different effects (FIGS. 1D and 1E)."}, "[2]": {"assay": "LC/MS quantification of serum fexaramine after PO or IP", "type": "in vivo, mice", "protocol": "FIG. 1D is a schematic diagram illustrating an experimental procedure used to evaluate fexaramine, where mice were treated with vehicle or fexaramine (100 mg/kg) via PO or IP injection, and LC/MS quantification of serum fexaramine was conducted five days later.\nFIG. 1E is a bar chart illustrating serum fexaramine concentrations after administration as described in FIG. 1D. Data represent mean values±STD. Statistical analysis was performed with the Student's t test (*p<0.05, **p<0.01).\nas §1"}, "[3]": {"test_system": "gene and protein expression in BAT, ileum, liver and adipose tissues", "assay": "Tissue gene and protein expression in treated DIO mice", "type": "in vivo", "protocol": "Mice were fed HFD for 14 weeks and then administered vehicle or fexaramine (100 mg/kg) daily by oral administration for 5 weeks with HFD. Data represent the mean±STD. Statistical analysis was performed with the Student's t test (*p<0.05, **p<0.01).\nFIGS. 7A-7H show a comparative expression chart and bar charts illustrating that fexaramine increased endogenous FGF15 signaling and changes in BA composition. Mice were fed HFD for 14 weeks and then administered daily oral injections of vehicle or fexaramine (100 mg/kg) for 5 weeks with HFD. In the bar graphs, open bars represent vehicle treatment and solid bars represent fexaramine treatment, and data represent the mean±STD. Statistical analysis was performed with the Student's t test (*p<0.05, **p<0.01).\nMice were fed on HFD for 14 weeks and subsequently subjected to daily PO injection of vehicle or fexaramine (100 mg/kg) for 5 weeks with HFD. In the bar graphs, open bars are vehicle, solid bars of fexaramine, and data represent the mean±STD. Statistical analysis was performed with the Student's t test (*p<0.05, **p<0.01).\nMice were fed HFD for 14 weeks and then subjected to daily PO injection of vehicle (open bar in bar graphs) or fexaramine (100 mg/kg) (solid bar in bar graphs) for 5 weeks with HFD."}, "[4]": {"test_system": "FXR-null mice", "assay": "HFD-fed FXR-null mice", "type": "in vivo", "settings": "100 mg/kg 5 weeks", "protocol": "Data represent the mean±SD. Statistical analysis was performed with the Student's t test. *p<0.05, **p<0.01."}, "[5]": {"test_system": "DIO mice", "assay": "Hyperinsulinemic-euglycemic clamp in DIO mice", "type": "in vivo", "protocol": "FIGS. 15I-15K are a line graph and two bar graphs showing the effect of fexaramine treatment on body weight, insulin-stimulated GDR, and fasting insulin levels. Mice were fed HFD for 14 weeks, and then administered daily oral injections of vehicle or fexaramine (100 mg/kg) for 3 weeks with HFD. The mice treated with fexaramine were initially heavier (by 2-3 grams). Three weeks after treatment, a clamp study was performed on the mice. Data represent the mean±STD. Statistical analysis was performed with the Student's t test (*p<0.05, **p<0.01)."}, "[6]": {"test_system": "serum bile acid composition", "assay": "Serum bile acid composition by mass spectrometry", "type": "in vivo, mice", "protocol": "Mice fed a HFD for 14 weeks were maintained on a HFD and treated with vehicle or fexaramine (100 mg/kg/day per os for 5 week). Serum bile acid composition was determined by mass spectrometry. N.D not determined."}}, "data": [{"smiles": "COC(=O)/C=C/c1cccc(N(Cc2ccc(-c3ccc(N(C)C)cc3)cc2)C(=O)C2CCCCC2)c1", "note": "[fexaramine]", "values": [{"measurement": "FXR target gene expression in the liver and kidney after IP injection", "setting": "[1]; IP, 100 mg/kg, five days", "result": "increases FXR target gene expression in the liver and kidney"}, {"measurement": "induction of SHP in liver and kidney", "setting": "[1]; PO versus IP, 100 mg/kg for five days", "result": "only seen in liver and kidney after IP treatment"}, {"measurement": "FXR target genes (IBABP, OSTα, FGF15) in liver or kidney", "setting": "[1]; 100 mg/kg", "result": "not in the liver or kidney"}, {"measurement": "FXR target genes (IBABP, OSTα, FGF15) in the intestine", "setting": "[1]; 100 mg/kg", "result": "substantially enhances FXR target gene expression in the intestine"}, {"measurement": "FXR target genes (IBABP, OSTα, FGF15) in liver or kidney", "setting": "[1]; 100 mg/kg, listed as Fex", "result": "failed to affect the expression of these genes in liver or kidney"}, {"measurement": "FXR target genes (IBABP, OSTα, FGF15) in the intestine", "setting": "[1]; 100 mg/kg, listed as Fex", "result": "induced multiple FXR target genes in the intestine"}, {"measurement": "induction of FXR target gene SHP throughout the intestine", "setting": "[1]; acute PO and IP, 100 mg/kg for five days", "result": "robust induction"}, {"measurement": "serum Fex level after PO compared to IP", "setting": "[2]; acute PO vs IP, 100 mg/kg", "result": "10 % of IP levels"}, {"measurement": "absorption after oral delivery", "setting": "[2]; oral", "result": "poorly absorbed"}, {"measurement": "D102, downstream target of TGR5, in brown adipose tissue", "setting": "[3]; BAT", "result": "induce"}, {"measurement": "PKA activity", "setting": "[3]; BAT", "result": "increased PKA activity"}, {"measurement": "expression of ERRy, PGC-1α, PGC-1β and target genes in BAT", "setting": "[3]; BAT", "result": "induction"}, {"measurement": "phosphorylation level of p38", "setting": "[3]; BAT", "result": "increased the phosphorylation level of p38"}, {"measurement": "FGF15 expression in intestine", "setting": "[3]; RNA-Seq, ileal FXR target genes", "result": "dramatically up-regulated"}, {"measurement": "OXPHOS activity, transcriptional changes in inguinal, gonadal and brown adipose depots", "setting": "[3]; RNA-sequencing", "result": "selectively enhance OXPHOS activity only in BAT"}, {"measurement": "HSL phosphorylation and serum levels of free fatty acids", "setting": "[3]; adipose depots, serum", "result": "pronounced increase"}, {"measurement": "serum catecholamine levels and β3-adrenergic receptor expression", "setting": "[3]; chronic treatment", "result": "increased serum catecholamine levels and β3-adrenergic receptor expression"}, {"measurement": "S6K phosphorylation (mTORC1 pathway)", "setting": "[3]; gonadal WAT", "result": "reduced S6K phosphorylation"}, {"measurement": "levels of IKK-ε and TANK-binding kinase 1 (TBK1)", "setting": "[3]; gonadal adipose tissue", "result": "reduced levels"}, {"measurement": "expression of brown fat-like signature genes", "setting": "[3]; inguinal adipose tissue", "result": "increased the expression"}, {"measurement": "respiratory capacity in the stromal vascular fraction", "setting": "[3]; inguinal adipose tissue", "result": "increased respiratory capacity"}, {"measurement": "abundance of multi-locular, UCP1-expressing adipocytes", "setting": "[3]; inguinal adipose tissue, immunohistochemistry", "result": "substantial increase"}, {"measurement": "expression of mucosal defense genes Occludin and Muc2", "setting": "[3]; intestine", "result": "increased expression"}, {"measurement": "expression of CYP8B1 and CYP27A1", "setting": "[3]; liver", "result": "not affected"}, {"measurement": "expression of liver FXR target genes SHP and BSEP", "setting": "[3]; liver", "result": "not altered"}, {"measurement": "hepatic CYP7A1 expression, mRNA and protein level", "setting": "[3]; liver", "result": "significantly repressed"}, {"measurement": "hepatic expression of gluconeogenic and lipogenic genes", "setting": "[3]; liver", "result": "reduced hepatic expression"}, {"measurement": "circulating FGF15", "setting": "[3]; serum", "result": "increase in circulating FGF15"}, {"measurement": "Fex-induced changes in gene expression and improvements in metabolic homeostasis in FXR null mice", "setting": "[4]", "result": "abrogated"}, {"measurement": "insulin-mediated suppression of HGP", "setting": "[5]; compared to control DIO mice", "result": "marked increase"}, {"measurement": "basal HGP, GDR, IS-GDR, FFA suppression and fasting insulin levels", "setting": "[5]; weight-matched cohorts", "result": "No differences"}, {"measurement": "bile acid pool size", "setting": "[6]", "result": "reducing the bile acid pool size"}, {"measurement": "fraction of lithocholic acid among circulating bile acids", "setting": "[6]", "result": "increasing the fraction of the secondary bile acid, lithocholic acid"}, {"measurement": "fraction of taurocholic acid among circulating bile acids", "setting": "[6]", "result": "decreasing the fraction of taurocholic acid"}, {"measurement": "ratio of unconjugated to conjugated cholic acid", "setting": "[6]; 100 mg/kg PO 5 weeks", "result": "remarkably increased"}]}]}
